The values that follow come from patent EP4813463A2, “TYK2 INHIBITORS AND COMPOSITIONS AND METHODS THEREOF” (Lynk Pharmaceuticals Co. Ltd., priority 2023, dated 2024).

Broadly, the Papp A→B is how fast a substance crosses the layer from the apical side. A lower Papp A→B goes with poor permeation. For orientation: Papp B→A means the apparent permeability from the basolateral to the apical side of a cell layer. For orientation: pIC50 means the negative decadic logarithm of the IC50, by convention in mol/L.

SMILES strings stand for the structures. pIC50: −log10 of the molar value. Like-named read-outs stand apart in the source and are kept apart here.

The nature of one data set: Caco-2 cell permeability. Type of data set: in vitro ADME. Conditions: human, Caco-2, 10.0 µM, no p-gp inhibitor. The method, then: Compounds permeability was evaluated using Caco-2 cell lines. HBSS buffer was used as transfer buffer. Appropriate dosing and receiver solutions were applied to the donor and receiver chambers to initiate the transport assay in apical to basolateral (A to B) or basolateral to apical (B to A) directions. Compounds were tested at 10.0 µM in the absence of p-gp inhibitor bidirectionally in duplicates. After incubation at 37°C for 90 mins, donor and receiver samples were analyzed by LC-MS/MS. The intestinal absorption potential was assessed using Papp value and efflux ratio.
Background: Passage across Caco-2 layers is used to estimate intestinal permeability.

A short description of data set [1]: Microsomal metabolic stability assay. The class given is in vitro ADME. Conditions: human, liver microsomes, 0.5 mg/mL microsomal protein, 1 µM test article, 2 mM NADPH; for half-life at 1 µM: read-out: Human LM T1/2; for microsomal CLint at 1 µM: read-out: Human LM Clint. In short, it runs like this:
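Test or control compound (1 µM) incubated with microsomes (0.5 mg/mL protein) in 100 mM potassium phosphate pH 7.4, 1.0 mM EDTA at 37°C, started with NADPH regenerating system (2 mM NADPH). Sampled at 0, 5, 15, 30, 45 min, acetonitrile-quenched, LC/MS/MS. T1/2 from ln %remaining vs time slope; CLint = 0.693/T1/2 per mg protein/mL.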

A further data set deals with T1, TYK2 (Homo sapiens, UniProt P29597).
T1 construct: purchased Carna Biosciences
T1 sequence (P29597 897-1176 limits assumed): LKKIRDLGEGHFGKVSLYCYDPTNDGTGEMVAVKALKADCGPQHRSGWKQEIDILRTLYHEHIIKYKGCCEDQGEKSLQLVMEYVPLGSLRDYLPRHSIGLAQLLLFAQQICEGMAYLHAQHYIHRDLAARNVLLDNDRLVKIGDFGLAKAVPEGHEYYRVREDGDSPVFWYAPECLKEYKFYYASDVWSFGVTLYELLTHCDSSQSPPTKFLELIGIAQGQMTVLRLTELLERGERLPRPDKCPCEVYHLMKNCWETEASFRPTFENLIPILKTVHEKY
The experiment in a line: TYK2 kinase activity, microfluidic assay (Caliper EZ Reader II, FAM labeled peptide substrate). Type of data set: biochemical. Conditions: TYK2 20 nM, 1 mM ATP. How it is done: (§1) Testing for JAK1, JAK2 and TYK2 Kinase Activities
(§2) JAK activity was determined in the reaction buffer 50 mM HEPES, 0.01% Brij35, 10 mM MgCl2, 2 mM DTT by a microfluidic assay. The phosphorylation of a FAM labeled peptide substrate was monitored in the Caliper EZ Reader II (Perkin Elmer). The assay condition for each batch of enzyme (Carna Biosciences) was optimized to obtain 10% conversion rate of peptide substrate.
(§3) The test compounds were dissolved in DMSO to a stock concentration of 10 mM. Three-fold serially diluted compounds with top concentration of 5 µM were pre-incubated with JAK1, JAK2 or TYK2 for 10 min at ambient temperature. The final DMSO concentration of assay mixture was 1%. […] The reaction was stopped by adding 50 mM EDTA.
(§4) And the well without compound but with equivalent DMSO was defined as no inhibition. The percent inhibition was calculated by the following formula: % Inhibition = (Conversion%_max−Conversion%_sample)/(Conversion%_max−Conversion%_min) × 100 [formula] wherein • Conversion%_ max = the conversion rate in the positive well without addition of compound • Conversion%_ sample = the conversion rate of test compounds • Conversion%_ min = the conversion rate in the well without addition of enzyme
(§5) The dose-response (percent inhibition) curve was plotted and IC50 values were determined by GraphPad software. The IC50 values of tested compounds were list in Table 3. Table 3. JAK1, JAK2 and TYK2 IC50 Values of Illustrative Compounds

A further data set deals with T2, JAK2 (Homo sapiens, UniProt O60674).
T2 construct: purchased Carna Biosciences
T2 sequence (O60674 849-1124 limits assumed): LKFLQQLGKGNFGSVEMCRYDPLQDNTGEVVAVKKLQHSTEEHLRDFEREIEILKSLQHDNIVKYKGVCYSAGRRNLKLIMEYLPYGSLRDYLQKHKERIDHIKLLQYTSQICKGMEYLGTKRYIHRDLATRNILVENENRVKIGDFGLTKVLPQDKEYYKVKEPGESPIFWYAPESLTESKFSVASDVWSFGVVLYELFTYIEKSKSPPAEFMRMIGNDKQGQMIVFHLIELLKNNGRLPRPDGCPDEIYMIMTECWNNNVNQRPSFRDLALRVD
The experiment in a line: JAK2 kinase activity, microfluidic assay (Caliper EZ Reader II, FAM labeled peptide substrate). The class given is biochemical. Conditions: JAK2 1.5 nM, 1 mM ATP. The method, then:
as §1, §2, §3, §4, §5

The next data set has as its target T3, JAK1 (Homo sapiens, UniProt P23458).
T3 construct: purchased Carna Biosciences
Briefly: JAK1 kinase activity, microfluidic assay (Caliper EZ Reader II, FAM labeled peptide substrate). The class given is biochemical. As to conditions: JAK1 10 nM, 1 mM ATP. How it is done: as §1, §2, §3, §4, §5

Another data set concerns pSTAT1. The experiment in a line: Phosphorylation inhibition of STAT in human whole blood (IFN-alpha stimulated, flow cytometry). Type of data set: cell-based. Conditions: T-cell, 20 min, IFN-alpha stimulation 20 mins, CD3 T cells, read-out: pSTAT1 inhibition in hWB (IC50). In outline: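 Fresh human whole blood stimulated 20 min with human universal type I IFN-alpha, then fixed, permeabilised and stained for CD3 and pSTAT1 (Y701). pSTAT1 in T cells read by flow cytometry; IC50 from 4-parameter logistic fit.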

[2] abbreviates: read-out: Efflux Ratio: Papp(B-A)/Papp(A-B).

T3 sequence (P23458 875-1153 limits assumed): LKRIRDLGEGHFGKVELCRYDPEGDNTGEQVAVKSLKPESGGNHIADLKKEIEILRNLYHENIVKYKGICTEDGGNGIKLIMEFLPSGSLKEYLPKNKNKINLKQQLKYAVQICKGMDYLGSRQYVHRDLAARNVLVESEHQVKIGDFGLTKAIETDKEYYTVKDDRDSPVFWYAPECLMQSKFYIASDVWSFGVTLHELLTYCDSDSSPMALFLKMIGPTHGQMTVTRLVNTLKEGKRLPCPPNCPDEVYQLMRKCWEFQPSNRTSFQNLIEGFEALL

`COC(=O)c1cnc(NC(=O)[C@@H]2C[C@@H]2F)cc1Nc1nn(C)c2ccc(C(O)C(F)(F)F)c(OC)c12` (single isomer, unassigned) [Example 122A, Methyl 6-((1S,2S)-2-fluorocyclopropane-1-carboxamido)-4-((4-methoxy-1-methyl-5-((S*)-2,2,2-trifluoro-1-hydroxyethyl)-1H-indazol-3-yl)amino) nicotinate] registered a Papp A→B at 1.5 h, 10 µM in “Caco-2 cell permeability” (90 mins, A to B) of 27.4 ×10⁻⁶ cm/s. In the data set “Caco-2 cell permeability” (90 mins, B to A), the Papp B→A at 1.5 h, 10 µM is 45.3 ×10⁻⁶ cm/s. The efflux ratio at 1.5 h, 10 µM in the data set “Caco-2 cell permeability” (setting [2]) is 1.65. Besides, the half-life at 1 µM in data set [1] (pH 7.4) is 1.49 h. Also, the microsomal CLint at 1 µM in data set [1] was found to be 15.5 µL/min/mg.
Take `[2H]C([2H])([2H])NC(=O)c1cnc(NC(=O)C2CC2)cc1Nc1cnn2ccc([C@H](O)C(F)(F)F)c(OC)c12` [Example 7A, (S)-6-(cyclopropanecarboxamido)-4-((4-methoxy-5-(2,2,2-trifluoro-1-hydroxyethyl)pyrazolo[1,5-a]pyridin-3-yl)amino)-N-(methyl-d3)nicotinamide]: the pIC50 on TYK2 is < 4.70; against JAK2, < 4.70; at JAK1 it was < 4.70; with pSTAT1, 7.51. Further, the microsomal CLint at 1 µM in data set [1] (pH 7.4) worked out at 15.6 µL/min/mg. Besides, the half-life at 1 µM in data set [1] (pH 7.4) was 1.48 h.
Regarding `[2H]C([2H])([2H])NC(=O)c1cnc(NC(=O)C2CC2)cc1Nc1cnn2ccc([C@@H](O)C(F)(F)F)c(OC)c12` [Example 7B, (R)-6-(cyclopropanecarboxamido)-4-((4-methoxy-5-(2,2,2-trifluoro-1-hydroxyethyl)pyrazolo[1,5-a]pyridin-3-yl)amino)-N-(methyl-d3)nicotinamide], the pIC50 was < 4.70 on TYK2, < 4.70 on JAK2, < 4.70 against JAK1 and 6.00 with pSTAT1. Moreover, the microsomal CLint at 1 µM in data set [1] (pH 7.4) amounted to 10.8 µL/min/mg. Moreover, the half-life at 1 µM in data set [1] (pH 7.4) is 2.14 h.
Turning to `[2H]C([2H])([2H])NC(=O)c1cnc(Nc2ccn(C)n2)cc1Nc1cnn2ccc([C@H](O)C(F)(F)F)c(OC)c12` [Example 21, (S)-4-((4-methoxy-5-(2,2,2-trifluoro-1-hydroxyethyl)pyrazolo[1,5-a]pyridin-3-yl)amino)-N-(methyl-d3)-6-((1-methyl-1H-pyrazol-3-yl)amino)nicotinamide], the pIC50 at TYK2 is < 4.70; at JAK2, < 4.70; against JAK1, < 4.70; in the data set on pSTAT1, 7.64. In “Caco-2 cell permeability” (90 mins, A to B), the Papp A→B at 90 min, 10 µM is 0.71 ×10⁻⁶ cm/s. In “Caco-2 cell permeability” (90 mins, B to A), this compound displayed a Papp B→A at 90 min, 10 µM of 47.4 ×10⁻⁶ cm/s. For the same compound, the efflux ratio at 90 min, 10 µM in the data set “Caco-2 cell permeability” (setting [2]) was determined as 67. The microsomal CLint at 1 µM in data set [1] (pH 7.4) is 22.8 µL/min/mg. Also, the half-life at 1 µM in data set [1] (pH 7.4) was 1.01 h.
For `[2H]C([2H])([2H])NC(=O)c1cnc(Nc2cc(C)nc(C)n2)cc1Nc1cnn2ccc([C@H](O)C(F)(F)F)c(OC)c12` [Example 25, (S)-6-((2,6-Dimethylpyrimidin-4-yl)amino)-4-((4-methoxy-5-(2,2,2-trifluoro-1-hydroxyethyl)pyrazolo[1,5-a]pyridin-3-yl)amino)-N-(methyl-d3)nicotinamide], the pIC50 on TYK2 was < 4.70; at JAK2, < 4.70; against JAK1 it was < 4.70; with pSTAT1, 7.51. Besides, in “Caco-2 cell permeability” (90 mins, A to B), the Papp A→B at 90 min, 10 µM came out at 2.57 ×10⁻⁶ cm/s. In the data set “Caco-2 cell permeability” (90 mins, B to A), the Papp B→A at 90 min, 10 µM was determined as 62.3 ×10⁻⁶ cm/s. Besides, in “Caco-2 cell permeability” (setting [2]), the efflux ratio at 90 min, 10 µM stood at 24.2.
Regarding `[2H]C([2H])([2H])NC(=O)c1cnc(NC(=O)C2CC2)cc1Nc1cnn2ccc([C@H](OC)C(F)(F)F)c(OC)c12` [Example 27, (S)-6-(cyclopropanecarboxamido)-4-((4-methoxy-5-(2,2,2-trifluoro-1-methoxyethyl)pyrazolo[1,5-a]pyridin-3-yl)amino)-N-(methyl-d3)nicotinamide], the pIC50 is < 4.70 against TYK2, < 4.70 against JAK2, < 4.70 at JAK1 and 7.29 in the data set on pSTAT1.
For `[2H]C([2H])([2H])NC(=O)c1nnc(NC(=O)C2CC2)cc1Nc1cnn2ccc([C@H](O)C(F)(F)F)c(OC)c12` [Example 30, (S)-6-(cyclopropanecarboxamido)-4-((4-methoxy-5-(2,2,2-trifluoro-1-hydroxyethyl)pyrazolo[1,5-a]pyridin-3-yl)amino)-N-(methyl-d3)pyridazine-3-carboxamide], the pIC50 is < 4.70 against TYK2, < 4.70 against JAK2, < 4.70 at JAK1 and 7.28 in the data set with pSTAT1. In addition, the microsomal CLint at 1 µM in data set [1] (pH 7.4) was found to be 17 µL/min/mg. In data set [1] (pH 7.4), the half-life at 1 µM is 1.36 h.
In turn, `COC(=O)c1cnc(NC(=O)C2CC2)cc1Nc1nn(C)c2ccc([C@H](OC)C(F)(F)F)c(OC)c12` [Example 45B, Methyl (S)-6-(cyclopropanecarboxamido)-4-((4-methoxy-1-methyl-5-(2,2,2-trifluoro-1-methoxyethyl)-1H-indazol-3-yl)amino)nicotinate] displayed a Papp A→B at 90 min, 10 µM in “Caco-2 cell permeability” (90 mins, A to B) of 7.27 ×10⁻⁶ cm/s. Further, in “Caco-2 cell permeability” (90 mins, B to A), the Papp B→A at 90 min, 10 µM amounted to 5.65 ×10⁻⁶ cm/s. Moreover, the efflux ratio at 90 min, 10 µM in “Caco-2 cell permeability” (setting [2]) is 0.78. In data set [1] (pH 7.4), the microsomal CLint at 1 µM came out at 18.4 µL/min/mg and the half-life at 1 µM was found to be 1.26 h.
`COC(=O)c1cnc(NC(=O)C2CC2)cc1Nc1nn(C)c2ccc([C@H](O)C(F)(F)F)c(OC)c12` [Example 48A, Methyl (S)-6-(cyclopropanecarboxamido)-4-((4-methoxy-1-methyl-5-(2,2,2-trifluoro-1-hydroxyethyl)-1H-indazol-3-yl)amino)nicotinate]: the negative logarithm of the IC50 (pIC50) at TYK2 is < 5.30; against JAK2, < 5.30; on JAK1, < 5.30; with pSTAT1, 7.54. Moreover, in the data set “Caco-2 cell permeability” (90 mins, A to B), the apical-to-basolateral permeability (Papp A→B) at 90 min, 10 µM came to 29.9 ×10⁻⁶ cm/s. The same compound displayed an apparent permeability from basolateral to apical (Papp B→A) at 90 min, 10 µM in the data set “Caco-2 cell permeability” (90 mins, B to A) of 29 ×10⁻⁶ cm/s. Further, the efflux ratio at 90 min, 10 µM in “Caco-2 cell permeability” (setting [2]) is 0.97.
With `[2H]C([2H])([2H])O[C@@H](c1ccc2c(c(Nc3cc(NC(=O)C4CC4)ncc3C(=O)OC)nn2C)c1OC)C(F)(F)F` [Example 50B, Methyl (S)-6-(cyclopropanecarboxamido)-4-((4-methoxy-1-methyl-5-(2,2,2-trifluoro-1-(methoxy-d3)ethyl)-1H-indazol-3-yl)amino)nicotinate], the negative logarithm of the IC50 (pIC50) is < 5.30 on TYK2, < 5.30 against JAK2, < 5.30 against JAK1 and 7.25 with pSTAT1. Moreover, the microsomal CLint at 1 µM in data set [1] (pH 7.4) worked out at 10.9 µL/min/mg. Besides, the half-life at 1 µM in data set [1] (pH 7.4) worked out at 2.11 h.
Take `[2H]C([2H])([2H])NC(=O)c1cnc(NC(=O)C2CC2)cc1Nc1nn(C)c2ccc([C@H](OC([2H])([2H])[2H])C(F)(F)F)c(OC)c12` [Example 55A, (S)-6-(cyclopropanecarboxamido)-4-((4-methoxy-1-methyl-5-(2,2,2-trifluoro-1-(methoxy-d3)ethyl)-1H-indazol-3-yl)amino)-N-(methyl-d3)nicotinamide]: the pIC50 is < 5.30 at TYK2, < 5.00 on JAK2, < 5.30 against JAK1 and 7.60 in the data set with pSTAT1.
